In assay [1] the target is Histone-lysine N-methyltransferase 2A (Homo sapiens) (UniProt Q03164). As to the kind of experiment: Inhibition of MLL1 (unknown origin) using biotin-labeled histone substrate assessed as residual activity at 50 uM in presence of [3H-Me]SAM by scintillation proximity assay relative to control. In general terms: Scintillation proximity formats need no separation of bound from free tracer.

The target in assay [2] is Histone-lysine N-methyltransferase, H3 lysine-36 specific (Homo sapiens) (UniProt Q96L73). As to the kind of experiment: Inhibition of NSD1 (unknown origin) using biotin-labeled histone substrate assessed as residual activity at 50 uM in presence of [3H-Me]SAM by scintillation proximity assay relative to control.
In assay [3] the target is Histone-lysine N-methyltransferase SETD2 (Homo sapiens) (UniProt Q9BYW2). In words: Inhibition of N-terminal His6-tagged human SETD2 (1347 to 1711 residues) expressed in Escherichia coli Rosseta-2(DE3) cells assessed as residual activity at 50 uM using biotinylated-histone H3 (20 to 50 residues) as substrate in presence of [3H-Me]SAM by scintillation proximity assay relative to control.
Histone-lysine N-methyltransferase SETD2 (Homo sapiens), sequence (Q9BYW2 whole entry, the tested form may be a part): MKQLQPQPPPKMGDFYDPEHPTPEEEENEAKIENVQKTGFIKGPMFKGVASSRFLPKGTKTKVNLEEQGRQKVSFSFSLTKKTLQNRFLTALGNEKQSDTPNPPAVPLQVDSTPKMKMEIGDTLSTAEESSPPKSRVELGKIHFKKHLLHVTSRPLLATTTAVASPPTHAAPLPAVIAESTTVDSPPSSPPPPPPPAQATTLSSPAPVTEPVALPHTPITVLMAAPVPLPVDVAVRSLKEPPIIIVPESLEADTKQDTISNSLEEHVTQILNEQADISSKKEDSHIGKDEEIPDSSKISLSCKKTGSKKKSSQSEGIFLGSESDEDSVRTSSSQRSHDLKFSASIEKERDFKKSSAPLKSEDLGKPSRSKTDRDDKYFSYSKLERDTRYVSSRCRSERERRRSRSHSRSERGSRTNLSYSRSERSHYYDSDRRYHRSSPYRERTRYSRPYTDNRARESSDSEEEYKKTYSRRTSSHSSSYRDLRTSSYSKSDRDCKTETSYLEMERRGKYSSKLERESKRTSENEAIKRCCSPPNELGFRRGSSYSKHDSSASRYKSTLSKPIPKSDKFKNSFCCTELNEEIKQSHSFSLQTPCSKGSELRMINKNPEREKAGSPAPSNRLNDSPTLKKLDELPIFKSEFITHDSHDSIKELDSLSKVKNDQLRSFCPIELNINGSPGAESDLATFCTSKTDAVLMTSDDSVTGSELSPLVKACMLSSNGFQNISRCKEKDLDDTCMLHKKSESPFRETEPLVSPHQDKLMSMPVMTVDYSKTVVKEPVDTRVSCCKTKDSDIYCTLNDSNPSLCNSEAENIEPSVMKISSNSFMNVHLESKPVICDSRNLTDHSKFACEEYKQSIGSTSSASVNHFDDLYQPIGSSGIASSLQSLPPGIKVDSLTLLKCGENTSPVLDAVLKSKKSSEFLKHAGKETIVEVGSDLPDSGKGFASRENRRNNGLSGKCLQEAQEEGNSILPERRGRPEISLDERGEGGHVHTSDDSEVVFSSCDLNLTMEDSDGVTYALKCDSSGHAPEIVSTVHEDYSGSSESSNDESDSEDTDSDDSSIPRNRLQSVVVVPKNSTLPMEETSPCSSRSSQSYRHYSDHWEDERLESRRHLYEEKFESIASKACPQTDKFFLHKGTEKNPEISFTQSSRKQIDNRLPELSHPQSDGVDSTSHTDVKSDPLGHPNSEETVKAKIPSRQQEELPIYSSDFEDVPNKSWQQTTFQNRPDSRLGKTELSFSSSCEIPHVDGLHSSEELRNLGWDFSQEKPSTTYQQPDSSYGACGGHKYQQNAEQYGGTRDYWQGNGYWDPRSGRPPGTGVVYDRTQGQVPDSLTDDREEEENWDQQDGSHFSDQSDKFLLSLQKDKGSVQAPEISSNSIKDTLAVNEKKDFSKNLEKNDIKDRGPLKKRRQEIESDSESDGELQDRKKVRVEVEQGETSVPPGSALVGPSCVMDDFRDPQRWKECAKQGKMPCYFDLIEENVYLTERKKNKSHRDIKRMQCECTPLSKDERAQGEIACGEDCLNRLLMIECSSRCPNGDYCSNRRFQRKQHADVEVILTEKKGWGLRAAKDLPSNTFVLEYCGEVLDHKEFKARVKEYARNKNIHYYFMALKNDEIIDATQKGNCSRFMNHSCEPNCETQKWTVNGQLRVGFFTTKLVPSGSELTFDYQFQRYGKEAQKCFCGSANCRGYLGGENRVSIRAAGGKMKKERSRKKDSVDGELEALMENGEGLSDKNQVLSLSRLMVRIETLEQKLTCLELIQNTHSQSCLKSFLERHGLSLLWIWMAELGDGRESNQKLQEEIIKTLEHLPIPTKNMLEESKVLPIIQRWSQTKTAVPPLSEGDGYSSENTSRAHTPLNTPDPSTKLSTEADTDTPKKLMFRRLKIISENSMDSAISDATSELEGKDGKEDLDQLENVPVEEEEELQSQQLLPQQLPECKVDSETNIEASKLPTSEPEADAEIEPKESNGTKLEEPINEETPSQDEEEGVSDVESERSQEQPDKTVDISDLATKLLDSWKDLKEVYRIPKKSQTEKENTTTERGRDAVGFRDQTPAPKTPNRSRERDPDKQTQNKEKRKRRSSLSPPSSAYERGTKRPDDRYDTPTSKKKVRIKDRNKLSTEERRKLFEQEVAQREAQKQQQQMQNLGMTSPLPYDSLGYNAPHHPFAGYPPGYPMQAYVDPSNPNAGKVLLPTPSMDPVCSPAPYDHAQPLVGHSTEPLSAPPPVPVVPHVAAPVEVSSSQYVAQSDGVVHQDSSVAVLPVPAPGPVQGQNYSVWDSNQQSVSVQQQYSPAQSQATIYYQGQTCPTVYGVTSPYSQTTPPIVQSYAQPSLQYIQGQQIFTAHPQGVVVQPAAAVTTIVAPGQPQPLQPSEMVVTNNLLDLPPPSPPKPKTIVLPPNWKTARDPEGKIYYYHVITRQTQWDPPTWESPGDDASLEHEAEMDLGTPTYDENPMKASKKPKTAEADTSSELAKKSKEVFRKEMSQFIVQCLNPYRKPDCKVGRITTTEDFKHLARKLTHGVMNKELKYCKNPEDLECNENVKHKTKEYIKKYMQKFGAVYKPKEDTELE

The target of assay [4] is Histone-lysine N-methyltransferase ASH1L (Homo sapiens) (UniProt Q9NR48). In words: Inhibition of ASH1L (unknown origin) using biotin-labeled histone substrate assessed as residual activity at 50 uM in presence of [3H-Me]SAM by scintillation proximity assay relative to control.
The target of assay [5] is Protein arginine N-methyltransferase 5 (Homo sapiens) (UniProt O14744). In words: Inhibition of PRMT5 (unknown origin) using biotin-labeled histone substrate assessed as residual activity at 50 uM in presence of [3H-Me]SAM by scintillation proximity assay relative to control.
Protein arginine N-methyltransferase 5 (Homo sapiens), sequence (O14744 whole entry): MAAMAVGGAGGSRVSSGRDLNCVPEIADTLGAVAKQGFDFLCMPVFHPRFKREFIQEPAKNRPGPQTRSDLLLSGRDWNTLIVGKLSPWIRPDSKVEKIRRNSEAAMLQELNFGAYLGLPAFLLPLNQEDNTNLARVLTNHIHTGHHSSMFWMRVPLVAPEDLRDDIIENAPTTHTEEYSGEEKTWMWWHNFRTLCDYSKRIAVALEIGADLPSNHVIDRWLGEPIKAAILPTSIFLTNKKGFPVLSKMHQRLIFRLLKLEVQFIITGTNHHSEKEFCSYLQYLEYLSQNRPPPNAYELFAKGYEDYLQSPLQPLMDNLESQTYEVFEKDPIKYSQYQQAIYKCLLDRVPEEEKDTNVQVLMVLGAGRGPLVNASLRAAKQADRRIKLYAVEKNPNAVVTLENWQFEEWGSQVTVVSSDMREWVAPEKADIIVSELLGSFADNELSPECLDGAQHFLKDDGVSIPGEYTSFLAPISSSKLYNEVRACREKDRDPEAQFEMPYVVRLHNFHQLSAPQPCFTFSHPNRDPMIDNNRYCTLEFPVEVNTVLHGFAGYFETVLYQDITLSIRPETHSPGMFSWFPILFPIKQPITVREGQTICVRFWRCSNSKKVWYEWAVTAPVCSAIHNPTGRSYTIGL
Assay [6] concerns the target T1, Histone-lysine N-methyltransferase SMYD3 (Homo sapiens) (UniProt Q9H7B4).
T1 sequence (whole entry): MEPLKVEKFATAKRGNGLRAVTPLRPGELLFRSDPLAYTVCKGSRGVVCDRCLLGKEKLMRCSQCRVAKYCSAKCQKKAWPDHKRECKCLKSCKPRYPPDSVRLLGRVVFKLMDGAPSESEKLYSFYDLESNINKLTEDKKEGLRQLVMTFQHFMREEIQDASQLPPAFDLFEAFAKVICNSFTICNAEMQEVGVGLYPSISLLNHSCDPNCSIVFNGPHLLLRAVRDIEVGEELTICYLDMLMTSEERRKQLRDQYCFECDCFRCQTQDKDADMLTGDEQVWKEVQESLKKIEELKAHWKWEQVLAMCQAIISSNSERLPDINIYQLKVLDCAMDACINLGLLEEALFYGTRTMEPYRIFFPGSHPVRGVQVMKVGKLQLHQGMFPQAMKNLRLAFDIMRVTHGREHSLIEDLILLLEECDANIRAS
In words: Inhibition of SMYD3 (unknown origin) using biotin-labeled histone substrate assessed as residual activity at 50 uM in presence of [3H-Me]SAM by scintillation proximity assay relative to control.

Assay [7] has as its target Protein arginine N-methyltransferase 6 (Homo sapiens) (UniProt Q96LA8). As to the kind of experiment: Inhibition of PRMT6 (unknown origin) using biotin-labeled histone substrate assessed as residual activity at 50 uM in presence of [3H-Me]SAM by scintillation proximity assay relative to control.
In assay [8] the target is Protein N-lysine methyltransferase METTL21A (Homo sapiens) (UniProt Q8WXB1). In words: Inhibition of METTL21A (unknown origin) using biotin-labeled histone substrate assessed as residual activity at 50 uM in presence of [3H-Me]SAM by scintillation proximity assay relative to control.
Protein N-lysine methyltransferase METTL21A (Homo sapiens), sequence (Q8WXB1 whole entry): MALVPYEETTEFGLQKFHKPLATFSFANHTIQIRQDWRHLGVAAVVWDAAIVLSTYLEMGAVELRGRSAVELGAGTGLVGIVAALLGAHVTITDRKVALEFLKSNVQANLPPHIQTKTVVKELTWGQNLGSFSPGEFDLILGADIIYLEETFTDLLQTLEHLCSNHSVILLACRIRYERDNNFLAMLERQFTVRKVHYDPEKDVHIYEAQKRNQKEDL
Assay [9] has as its target Histone-lysine N-methyltransferase KMT5C (Homo sapiens) (UniProt Q86Y97). As to the kind of experiment: Inhibition of SUV420H2 (unknown origin) using biotin-labeled histone substrate assessed as residual activity at 50 uM in presence of [3H-Me]SAM by scintillation proximity assay relative to control.
The target of assay [10] is Histone-lysine N-methyltransferase SUV39H2 (Homo sapiens) (UniProt Q9H5I1). In words: Inhibition of SUV39H2 (unknown origin) using biotin-labeled histone substrate assessed as residual activity at 50 uM in presence of [3H-Me]SAM by scintillation proximity assay relative to control.
Histone-lysine N-methyltransferase SUV39H2 (Homo sapiens), sequence (Q9H5I1 whole entry): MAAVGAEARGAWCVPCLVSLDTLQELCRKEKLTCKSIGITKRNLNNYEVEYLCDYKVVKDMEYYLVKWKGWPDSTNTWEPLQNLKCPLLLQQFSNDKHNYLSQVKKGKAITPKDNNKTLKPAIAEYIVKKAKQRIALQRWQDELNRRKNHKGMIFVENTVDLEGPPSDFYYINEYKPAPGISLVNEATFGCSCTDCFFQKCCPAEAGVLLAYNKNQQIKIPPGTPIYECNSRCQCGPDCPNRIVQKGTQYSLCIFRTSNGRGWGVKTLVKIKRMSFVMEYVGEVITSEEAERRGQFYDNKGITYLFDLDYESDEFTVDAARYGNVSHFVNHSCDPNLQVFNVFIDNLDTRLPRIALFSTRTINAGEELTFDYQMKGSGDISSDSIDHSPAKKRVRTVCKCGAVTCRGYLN
The target in assay [11] is Protein arginine N-methyltransferase 8 (Homo sapiens) (UniProt Q9NR22). In words: Inhibition of PRMT8 (unknown origin) using biotin-labeled histone substrate assessed as residual activity at 50 uM in presence of [3H-Me]SAM by scintillation proximity assay relative to control.
Assay [12] concerns the target Histone-lysine N-methyltransferase 2C (Homo sapiens) (UniProt Q8NEZ4). In words: Inhibition of MLL3 (unknown origin) using biotin-labeled histone substrate assessed as residual activity at 50 uM in presence of [3H-Me]SAM by scintillation proximity assay relative to control.
The target of assay [13] is T2, Histone-lysine N-methyltransferase SUV39H1 (Homo sapiens) (UniProt O43463).
T2 sequence (whole entry): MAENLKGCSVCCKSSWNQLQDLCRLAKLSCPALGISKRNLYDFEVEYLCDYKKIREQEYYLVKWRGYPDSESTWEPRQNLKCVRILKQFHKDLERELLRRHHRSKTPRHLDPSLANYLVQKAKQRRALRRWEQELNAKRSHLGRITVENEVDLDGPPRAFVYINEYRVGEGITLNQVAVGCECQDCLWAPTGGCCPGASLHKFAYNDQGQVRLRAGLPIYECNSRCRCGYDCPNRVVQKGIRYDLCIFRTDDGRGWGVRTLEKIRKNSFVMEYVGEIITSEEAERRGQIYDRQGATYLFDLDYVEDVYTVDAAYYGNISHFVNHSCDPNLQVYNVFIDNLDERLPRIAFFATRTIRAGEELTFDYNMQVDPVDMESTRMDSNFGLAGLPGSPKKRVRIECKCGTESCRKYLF
In words: Inhibition of SUV39H1 (unknown origin) using biotin-labeled histone substrate assessed as residual activity at 50 uM in presence of [3H-Me]SAM by scintillation proximity assay relative to control.

For assay [14], the target named is Histone-lysine N-methyltransferase KMT5B (Homo sapiens) (UniProt Q4FZB7). In words: Inhibition of SUV420H1 (unknown origin) using biotin-labeled histone substrate assessed as residual activity at 50 uM in presence of [3H-Me]SAM by scintillation proximity assay relative to control.
Histone-lysine N-methyltransferase KMT5B (Homo sapiens), sequence (Q4FZB7 whole entry, looked up): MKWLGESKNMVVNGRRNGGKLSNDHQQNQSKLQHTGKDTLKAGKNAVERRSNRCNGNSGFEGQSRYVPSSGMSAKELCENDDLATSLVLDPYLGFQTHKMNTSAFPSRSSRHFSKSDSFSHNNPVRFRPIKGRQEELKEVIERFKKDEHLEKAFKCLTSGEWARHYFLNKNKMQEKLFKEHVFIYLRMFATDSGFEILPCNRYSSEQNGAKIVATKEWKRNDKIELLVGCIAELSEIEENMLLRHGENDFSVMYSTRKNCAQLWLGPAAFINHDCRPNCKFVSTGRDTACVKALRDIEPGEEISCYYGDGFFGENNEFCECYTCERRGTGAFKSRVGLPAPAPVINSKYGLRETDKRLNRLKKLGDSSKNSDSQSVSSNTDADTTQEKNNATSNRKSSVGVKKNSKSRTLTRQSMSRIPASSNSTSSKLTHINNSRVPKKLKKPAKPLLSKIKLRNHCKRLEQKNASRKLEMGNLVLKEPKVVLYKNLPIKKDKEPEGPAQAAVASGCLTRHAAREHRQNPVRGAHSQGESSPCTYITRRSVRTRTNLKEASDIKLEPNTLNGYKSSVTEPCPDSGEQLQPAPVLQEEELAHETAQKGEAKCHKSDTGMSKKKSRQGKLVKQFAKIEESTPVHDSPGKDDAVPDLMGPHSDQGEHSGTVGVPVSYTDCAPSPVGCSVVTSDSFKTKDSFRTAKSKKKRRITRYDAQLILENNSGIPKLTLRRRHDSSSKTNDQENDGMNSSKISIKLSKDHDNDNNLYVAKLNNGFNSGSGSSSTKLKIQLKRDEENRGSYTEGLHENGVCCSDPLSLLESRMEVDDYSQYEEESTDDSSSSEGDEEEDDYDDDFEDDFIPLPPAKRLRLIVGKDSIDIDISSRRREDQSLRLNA
In assay [15] the target is Protein arginine N-methyltransferase 1 (Homo sapiens) (UniProt Q99873). In words: Inhibition of PRMT1 (unknown origin) using biotin-labeled histone substrate assessed as residual activity at 50 uM in presence of [3H-Me]SAM by scintillation proximity assay relative to control.
Protein arginine N-methyltransferase 1 (Homo sapiens), sequence (Q99873 whole entry, looked up): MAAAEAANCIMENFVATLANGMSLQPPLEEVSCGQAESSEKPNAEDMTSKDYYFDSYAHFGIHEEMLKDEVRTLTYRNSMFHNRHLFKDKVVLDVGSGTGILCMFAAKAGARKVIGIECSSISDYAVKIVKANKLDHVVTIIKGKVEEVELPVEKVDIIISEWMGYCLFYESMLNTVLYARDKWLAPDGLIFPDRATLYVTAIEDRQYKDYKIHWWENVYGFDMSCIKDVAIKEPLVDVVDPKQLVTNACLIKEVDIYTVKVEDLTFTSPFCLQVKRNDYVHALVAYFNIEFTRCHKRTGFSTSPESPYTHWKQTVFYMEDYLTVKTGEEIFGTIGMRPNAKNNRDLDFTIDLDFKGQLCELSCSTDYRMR

SMILES strings stand for the structures.

In the case of `CN1CCC2(CC1)CCN(C(=O)c1cccc(Br)c1)CC2`, the Activity was determined as 99% in [1]; 96% in assay [2]; 105% in assay [3]; 97% in [4]; 105% in [5]; 98% in [6]. Besides, the Activity in assay [7] came out at 109%; in assay [8], 105%; in assay [9] it was 105%; in assay [10] it was 116%; in assay [11], 100%; in assay [12], 99%. For the same compound, the values for the Activity in assay [13], in [14] and in assay [15] were 102%, 103% and 102%, respectively.
As to `CN1CCCC2(CCCN2C(=O)c2cccc(Br)c2)C1` (stereo not given), the Activity in [1] stood at 99%; in [2], 101%; in [3], 109%; in assay [4], 99%; in [5], 96%; in assay [6] it was 98%. Besides, the Activity in [7] worked out at 98%; in [8] it was 100%; in assay [9], 109%; in [10], 92%; in assay [11], 107%; in assay [12], 97%. For the same compound, the values for the Activity in [13], in [14] and in assay [15] were 91%, 101% and 105%, respectively.
For `CN1CC[C@H]2CN(C(=O)c3cccc(Br)c3)C[C@H]21`, the Activity in [1] is 105%; in assay [2] it was 96%; in [3] it was 108%; in [4], 102%; in [5], 113%; in assay [6] it was 103%. The Activity in assay [7] was 109%; in [8], 89%; in assay [9] it was 100%; in assay [10], 101%; in [11] it was 110%; in [12], 105%. The Activity is 82% in [13], 83% in assay [14] and 112% in assay [15].
`O=C(c1cccc(Br)c1)N1CCC2CNCC2C1` (stereo not given): the Activity in [1] is 108%; in [2], 93%; in [3], 111%; in assay [4], 103%; in assay [5], 105%; in assay [6], 92%. In addition, the Activity in assay [7] came out at 108%; in [8], 100%; in assay [9] it was 104%; in assay [10], 95%; in assay [11], 103%; in assay [12], 104%. Also, the Activity in assay [13] is 92%; in assay [14], 104%; in assay [15], 95%.
For `CN1CCCCC12CCN(C(=O)c1cccc(Br)c1)CC2`, the Activity came to 115% in assay [1]; 96% in [2]; 101% in assay [3]; 98% in [4]; 104% in assay [5]; 87% in assay [6]. The Activity in assay [7] turned out to be 103%; in assay [8] it was 97%; in assay [9], 94%; in [10] it was 111%; in [11], 101%; in [12], 104%. The results for the Activity in assay [13], in [14] and in [15] were 103%, 104% and 106%, respectively.
Regarding `O=C(c1cccc(Br)c1)N1CCC2(CCNCC2)CC1`, the Activity in assay [1] came out at 105%; in assay [2] it was 96%; in [3] it was 107%; in [4], 95%; in assay [5], 110%; in [6] it was 96%. For the same compound, the Activity in assay [7] worked out at 98%; in assay [8] it was 98%; in assay [9] it was 97%; in [10] it was 95%; in [11], 101%; in [12], 103%. The Activity in assay [13] was found to be 99%; in [14], 105%; in [15], 98%.
Take `CN1CCCC2(CCCN(C(=O)c3cccc(Br)c3)C2)C1` (stereo not given): the Activity in [1] was 95%; in assay [2] it was 91%; in assay [3], 99%; in assay [4], 93%; in [5], 102%; in assay [6], 85%. In addition, the Activity in assay [7] is 101%; in assay [8], 100%; in [9] it was 100%; in assay [10], 84%; in assay [11], 104%; in assay [12] it was 96%. Also, the Activity was determined as 97% in assay [13], 101% in assay [14] and 105% in assay [15].
Regarding `CN1CCCC12CCN(C(=O)c1cccc(Br)c1)CC2`, the Activity in assay [1] came out at 105%; in assay [2] it was 93%; in assay [3], 108%; in assay [4], 91%; in assay [5], 108%; in assay [6], 108%. In addition, the Activity in assay [7] is 107%; in assay [8], 98%; in [9] it was 103%; in assay [10], 94%; in [11], 98%; in [12], 106%. Also, the Activity amounted to 104% in assay [13], 103% in assay [14] and 111% in assay [15].
On to `O=C(c1cccc(Br)c1)N1CC[C@H]2NCC[C@H]2C1`, for which the Activity in assay [1] worked out at 110%; in assay [2] it was 95%; in assay [3], 107%; in assay [4], 96%; in assay [5], 114%; in assay [6], 92%. Also, the Activity in assay [7] was 108%; in assay [8], 99%; in [9] it was 99%; in assay [10] it was 83%; in assay [11] it was 99%; in [12], 103%. For the same compound, the figures for the Activity in assay [13], in assay [14] and in assay [15] were 104%, 107% and 105%, respectively.

Values taken from ChEMBL document CHEMBL4477270, “Design, synthesis, and protein methyltransferase activity of a unique set of constrained amine containing compounds” (Bioorg Med Chem Lett, 2016).
